Measured values as given in paper PMC11999280, “Design and screening of novel endosomal escape compounds that enhance functional delivery of oligonucleotides in vitro” (Molecular Therapy. Nucleic Acids, 2025).

Assays:
Format in all cases: cell-based
[1] = system: mCherry-GAL9 expressing HepG2 cells; assay: GAL9 recruitment assay, HepG2; conditions: calculated mean from >3 independent exp.
Experimental: (§1) Experiments assessing GAL9 localization as an indicator for endosomal remodeling were performed as previously described[15] using 8× stablemCherry-GAL9 expressing cell lines, SHSY5Y, U2OS, 16HBE, NCI-H358, HuH7, HepG2, HEK293, and HeLa. For mCherry-GAL9 recruitment, 3,000 or 6,500 cells/well (depending upon cell line) were seeded into 384-well CellCarrier Ultra plates 24 h prior to treatment (PerkinElmer, catalog no. 6007558). An Echo 655T acoustic dispenser (Labcyte) was used for EEE dose-response preparation by transferring to the cell plate. At assay endpoints, cells were PBS washed, 4% paraformaldehyde fixed at room temperature […] (VWR, catalog no. 9713.1000), and nuclei stained with PBS +1 μg/mL Hoechst 33342 (Thermo Fisher Scientific, catalog no. H21492).
(§2) Imaging was performed using a spinning-disk confocal microscope (Yokogawa: CV8000) with a ×20w objective (numerical aperture 1.0). Cells and mCherry-GAL9 structure identification and quantification were done using Columbus image-analysis software (PerkinElmer version 2.9.0). Data processing was done using Spotfire (Tibco version 11.4) and Prism (GraphPad version 9.1.0). Image panels were assembled using the FigureJ plugin for FIJI.[43] All mCherry-GAL9 experiments were performed three times (N = 3) with duplicated wells per treatment (n = 2).

[2] = system: mCherry-GAL9 expressing 16HBE cells; assay: GAL9 recruitment assay, 16HBE; conditions: calculated mean from >3 independent exp.
Experimental: as §1, §2

[3] = system: mCherry-GAL9 expressing HeLa cells; assay: GAL9 recruitment assay, HeLa; conditions: calculated mean from >3 independent exp.
Experimental: as §1, §2

[4] = system: mCherry-GAL9 expressing NCI-H358 cells; assay: GAL9 recruitment assay, NCI-H358; conditions: calculated mean from >3 independent exp.
Experimental: as §1, §2

[5] = system: HeLa_Luc705 cells (pLuc/705 splice-switching reporter); assay: Functional 705-SSO delivery, luciferase splice-switching assay; conditions: HeLa-Luc705 + 2 µM SSO, mean from >3 independent experiments
Description: Therefore, next, we functionally screened the SSO delivery in the HeLa_Luc705 reporter cell line. HeLa_Luc705 carries a pLuc/705 splice-switching reporter luciferase gene interrupted by a mutated β-globin intron, which creates a preferentially used cryptic 5′ splice site leading to aberrant splicing. Functional SSO delivery masks the cryptic site, redirecting the splicing machinery to the right splicing site, allowing the measurement of luciferase expression (Figure S1).[25]^,[26]^,[27]^,[28] We used SSO transfection with LF2000 as transfection control and the previously published endosomal escape enhancer CMP05 (here, EEE2) as positive control.[15]
For the assessment of functional SSO therapeutics, a HeLa_Luc705 cell line was grown in DMEM media supplemented with 10% fetal bovine serum (FBS). For most treatments, 10,000 cells/well were seeded in a 96-well plate, 24 h pre-incubated with 1- to 2-μM oligonucleotide, and then treated at the described EEE concentration. At 24 h post-treatment, cells were PBS rinsed and collected for further analysis (treatments and incubation times changed accordingly to the experiment design). Luciferase readout was performed as previously described,[15] using a GloMax 96-well plate microplate luminometer (Promega) immediately after adding 30 μL auto-injected luciferin substrate (Promega Firefly Luciferase Assay System; Thermo Scientific, catalog no. 16174) in a white-walled 96-well plate containing 30 μL 0.1% Triton X-100 (Sigma-Aldrich) cell lysed. Photon exposure time and delay were set to 10 and 2 s after injection. LF2000 was used as the transfection reagent control (Thermo Scientific, catalog no. 11668019). For EEE experiments using 1 or 2 μM SSOs, the control was prepared using lipofection with 100–200 nM SSO; this is to avoid complex induced cell toxicity.
705-SSO was purchased from and synthesized by Integrated DNA Technologies. The 705-SSO sequence was previously published, containing 2′-O-methylated bases and only phosphorothioate-saturated backbone linkages were included.[15] The 705-SSO was high-performance liquid chromatography purified, shipped, and stored in IDTE buffer (10 mM Tris, 0.1 mM EDTA).

[6] = system: mCherry-GAL9 expressing HEK293 cells; assay: GAL9 recruitment assay, HEK293; conditions: calculated mean from >3 independent exp.
Experimental: as §1, §2

[7] = system: mCherry-GAL9 expressing HuH7 cells; assay: GAL9 recruitment assay, HuH7; conditions: calculated mean from >3 independent exp.
Experimental: as §1, §2

[8] = system: mCherry-GAL9 expressing SHSY5Y cells; assay: GAL9 recruitment assay, SHSY5Y; conditions: calculated mean from >3 independent exp.
Experimental: as §1, §2

[9] = system: mCherry-GAL9 expressing U2OS cells; assay: GAL9 recruitment assay, U2OS; conditions: calculated mean from >3 independent exp.
Experimental: as §1, §2

COc1nn(C2CCNCC2)cc1Nc1ncc(C(F)(F)F)c(-c2c[nH]c3ccccc23)n1 [EEE24]
Gal9 response compared to reference ([1]; EEE 0.31 µM): 0.010 | Gal9 response compared to reference ([1]; EEE 0.62 µM): 0.009 | Gal9 response compared to reference ([1]; EEE 1.25 µM): 0.009 | Gal9 response compared to reference ([1]; EEE 2.5 µM): 0.008 | Gal9 response compared to reference ([1]; EEE 5 µM): 0.008 | Gal9 response compared to reference ([1]; EEE 10 µM): 0.104 | Gal9 response compared to reference ([2]; EEE 0.31 µM): 0.010 | Gal9 response compared to reference ([2]; EEE 0.62 µM): 0.011 | Gal9 response compared to reference ([2]; EEE 1.25 µM): 0.011 | Gal9 response compared to reference ([2]; EEE 2.5 µM): 0.014 | Gal9 response compared to reference ([2]; EEE 5 µM): 0.035 | Gal9 response compared to reference ([2]; EEE 10 µM): 0.335 | Gal9 response compared to reference ([3]; EEE 0.31 µM): 0.005 | Gal9 response compared to reference ([3]; EEE 0.62 µM): 0.005 | Gal9 response compared to reference ([3]; EEE 1.25 µM): 0.004 | Gal9 response compared to reference ([3]; EEE 2.5 µM): 0.004 | Gal9 response compared to reference ([3]; EEE 5 µM): 0.008 | Gal9 response compared to reference ([3]; EEE 10 µM): 0.207 | Gal9 response compared to reference ([4]; EEE 0.31 µM): 0.019 | Gal9 response compared to reference ([4]; EEE 0.62 µM): 0.018 | Gal9 response compared to reference ([4]; EEE 1.25 µM): 0.016 | Gal9 response compared to reference ([4]; EEE 2.5 µM): 0.015 | Gal9 response compared to reference ([4]; EEE 5 µM): 0.021 | Gal9 response compared to reference ([4]; EEE 10 µM): 0.115 | Luciferase expression compared to reference ([5]; EEE 5 µM): 7.300 | Luciferase expression compared to reference ([5]; EEE 1-1.25 µM): 0.741 | Luciferase expression compared to reference ([5]; EEE 2.5 - 3 µM): 1.920 | Gal9 response compared to reference ([6]; EEE 0.31 µM): 0.024 | Gal9 response compared to reference ([6]; EEE 0.62 µM): 0.019 | Gal9 response compared to reference ([6]; EEE 1.25 µM): 0.014 | Gal9 response compared to reference ([6]; EEE 2.5 µM): 0.017 | Gal9 response compared to reference ([6]; EEE 5 µM): 0.100 | Gal9 response compared to reference ([6]; EEE 10 µM): 0.464 | Gal9 response compared to reference ([7]; EEE 0.31 µM): 0.010 | Gal9 response compared to reference ([7]; EEE 0.62 µM): 0.010 | Gal9 response compared to reference ([7]; EEE 1.25 µM): 0.011 | Gal9 response compared to reference ([7]; EEE 2.5 µM): 0.016 | Gal9 response compared to reference ([7]; EEE 5 µM): 0.019 | Gal9 response compared to reference ([7]; EEE 10 µM): 0.174 | Gal9 response compared to reference ([8]; EEE 0.31 µM): 0.016 | Gal9 response compared to reference ([8]; EEE 0.62 µM): 0.015 | Gal9 response compared to reference ([8]; EEE 1.25 µM): 0.010 | Gal9 response compared to reference ([8]; EEE 2.5 µM): 0.013 | Gal9 response compared to reference ([8]; EEE 5 µM): 0.070 | Gal9 response compared to reference ([8]; EEE 10 µM): 0.703 | Gal9 response compared to reference ([9]; EEE 0.31 µM): 0.014 | Gal9 response compared to reference ([9]; EEE 0.62 µM): 0.015 | Gal9 response compared to reference ([9]; EEE 1.25 µM): 0.014 | Gal9 response compared to reference ([9]; EEE 2.5 µM): 0.015 | Gal9 response compared to reference ([9]; EEE 5 µM): 0.026 | Gal9 response compared to reference ([9]; EEE 10 µM): 0.166

COc1nn(C2CCN(C)CC2)cc1Nc1ncc(C(F)(F)F)c(-n2ccc3c(C#N)cccc32)n1 [EEE16]
Gal9 response compared to reference ([1]; EEE 0.31 µM): 0.010 | Gal9 response compared to reference ([1]; EEE 0.62 µM): 0.007 | Gal9 response compared to reference ([1]; EEE 1.25 µM): 0.008 | Gal9 response compared to reference ([1]; EEE 2.5 µM): 0.008 | Gal9 response compared to reference ([1]; EEE 5 µM): 0.009 | Gal9 response compared to reference ([1]; EEE 10 µM): 0.010 | Gal9 response compared to reference ([2]; EEE 0.31 µM): 0.008 | Gal9 response compared to reference ([2]; EEE 0.62 µM): 0.009 | Gal9 response compared to reference ([2]; EEE 1.25 µM): 0.008 | Gal9 response compared to reference ([2]; EEE 2.5 µM): 0.007 | Gal9 response compared to reference ([2]; EEE 5 µM): 0.011 | Gal9 response compared to reference ([2]; EEE 10 µM): 0.129 | Gal9 response compared to reference ([3]; EEE 0.31 µM): 0.004 | Gal9 response compared to reference ([3]; EEE 0.62 µM): 0.004 | Gal9 response compared to reference ([3]; EEE 1.25 µM): 0.003 | Gal9 response compared to reference ([3]; EEE 2.5 µM): 0.004 | Gal9 response compared to reference ([3]; EEE 5 µM): 0.004 | Gal9 response compared to reference ([3]; EEE 10 µM): 0.005 | Gal9 response compared to reference ([4]; EEE 0.31 µM): 0.014 | Gal9 response compared to reference ([4]; EEE 0.62 µM): 0.017 | Gal9 response compared to reference ([4]; EEE 1.25 µM): 0.014 | Gal9 response compared to reference ([4]; EEE 2.5 µM): 0.018 | Gal9 response compared to reference ([4]; EEE 5 µM): 0.014 | Gal9 response compared to reference ([4]; EEE 10 µM): 0.019 | Luciferase expression compared to reference ([5]; EEE 2.5 - 3 µM): 0.810 | Gal9 response compared to reference ([6]; EEE 0.31 µM): 0.023 | Gal9 response compared to reference ([6]; EEE 0.62 µM): 0.020 | Gal9 response compared to reference ([6]; EEE 1.25 µM): 0.019 | Gal9 response compared to reference ([6]; EEE 2.5 µM): 0.022 | Gal9 response compared to reference ([6]; EEE 5 µM): 0.024 | Gal9 response compared to reference ([6]; EEE 10 µM): 0.121 | Gal9 response compared to reference ([7]; EEE 0.31 µM): 0.009 | Gal9 response compared to reference ([7]; EEE 0.62 µM): 0.007 | Gal9 response compared to reference ([7]; EEE 1.25 µM): 0.008 | Gal9 response compared to reference ([7]; EEE 2.5 µM): 0.012 | Gal9 response compared to reference ([7]; EEE 5 µM): 0.008 | Gal9 response compared to reference ([7]; EEE 10 µM): 0.022 | Gal9 response compared to reference ([8]; EEE 0.31 µM): 0.014 | Gal9 response compared to reference ([8]; EEE 0.62 µM): 0.014 | Gal9 response compared to reference ([8]; EEE 1.25 µM): 0.012 | Gal9 response compared to reference ([8]; EEE 2.5 µM): 0.012 | Gal9 response compared to reference ([8]; EEE 5 µM): 0.012 | Gal9 response compared to reference ([8]; EEE 10 µM): 0.042 | Gal9 response compared to reference ([9]; EEE 0.31 µM): 0.010 | Gal9 response compared to reference ([9]; EEE 0.62 µM): 0.011 | Gal9 response compared to reference ([9]; EEE 1.25 µM): 0.010 | Gal9 response compared to reference ([9]; EEE 2.5 µM): 0.010 | Gal9 response compared to reference ([9]; EEE 5 µM): 0.010 | Gal9 response compared to reference ([9]; EEE 10 µM): 0.024
